Reference: article PMC7311426, “An amphipathic peptide with antibiotic activity against multidrug-resistant Gram-negative bacteria” (Nature Communications, 2020)
≈ marks a conversion by molar mass, not a printed value. Residues, ends and D or L forms follow the SMILES beside them.

Legend:
[1] = tested on: HEK-293 human embryonic kidney cells; experiment: in vitro
Procedure: (§1) HEK-293 human embryonic kidney cells (ATCC CRL-1573), HepG2 liver hepatocellular carcinoma cells (ATCC HB-8065), and HK-2 human kidney proximal tubule cells (ATCC CRL-2190) cell lines were purchased from ATCC. Cytotoxicity of arenicin-3 variants was determined using the Alamar Blue (resazurin; Sigma-Aldrich, Cat # R7017), with 1% FBS for HK-2 and 10% FBS for HEK-293, and HepG2[40]. Cells were seeded as 2000 cells per well in black wall clear bottom 384-well plates (Corning®, Costar®, Cat # 3712). The cells were incubated for 24 h at 37 °C, 5% CO2. Then peptides were added into each cell containing well. After 24 h incubation, 5 μM resazurin were added per well and incubated at 37 °C for 2 h. Then the fluorescence intensity (FI) was read using a Polarstar® Omega plate reader with excitation/emission 560/590 and CC50 values were determined using Prism 8 following curve fitting and applying the following equation: Percentageviability = (FITEST-FINegative/FIUNTREATED-FINegative)×100.
(§2) Hemolytic activity was measured against isolated human erythrocytes from anonymously donated fresh human blood. Isolated erythrocytes were adjusted to 1 × 10^9 blood cells mL^−1 in phosphate-buffered saline (PBS, pH 7.4), added to the wells of NUNC polypropylene round-bottom 96-well plates (Sigma-Aldrich, Cat # P6866) then up to 300 μg mL^−1 of compound was added per well and incubated for 3 h at 37 °C. Following incubation, samples were centrifuged at 3000 rpm for 20 min, and the supernatants, 100 μL, were carefully collected for measurement. The degree of hemolysis in the samples was determined by measurement of the absorption of the supernatants at 540 nm using the Polarstar-Omega plate reader. 1% Triton-X100 was used as positive control for inducing 100% hemolysis. HC10 and HC50 values were determined using Prism 8 following curve fitting. The use of human blood (sourced from the Australian Red Cross Blood Service) for hemolysis assays was approved by the University of Queensland Institutional Human Research Ethics Committee, Approval Number 2014000031. All in vitro toxicity assays were performed for two independent biological replicates as an 8-point dose response of 3-fold dilution series in triplicate with the highest test concentration of 300 μg mL^−1.

in vitro = conditions: human
Procedure: as §1, §2

[2] = tested on: HepG2 liver hepatocellular carcinoma cells; experiment: in vitro
Procedure: as §1, §2

[3] = tested on: HK-2 human kidney proximal tubule cells; experiment: in vitro
Procedure: as §1, §2

[4] = tested on: human erythrocytes (HRBC); assay type: cell-based; conditions: for Heamolysis HC10: red cells of human, 3 h
A. baumannii = experiment: microbe, parasite or virus in culture
Procedure: (§3) Antimicrobial activity of arenicin-3 and its analogs was tested against a panel of bacterial and yeast strains by in vitro broth microdilution (BMD) assay with minimum inhibitory concentration (MIC) determination. Strains were purchased from American Type Culture Collection (ATCC) or obtained from clinical collaborators (full strain profiles provided in Supplementary Data 3). All peptides were prepared in Ringer’s acetate solution, and subsequently diluted fresh in water for each independent assay.
(§4) Assays were performed in Mueller Hinton broth (MHB; BD, Cat. No. 211443) for bacteria, and yeast extract-peptone dextrose (YPD; Sigma-Aldrich, Y1500) for yeast. The concentrations of the peptides and comparator antibiotics/antifungals in the assay wells ranged from either 128 or 64 μg mL^−1, to 0.06 or 0.03 μg mL^−1 as a 12-point dose response plated as a 2-fold dilution series across the wells of the plate in duplicate for each independent biological replicate, using a final cell density of 5 × 10^5 CFU mL^−1 and 2.5 × 10^3 CFU mL^−1 for bacteria and yeast respectively. Final assay volumes were 100 μL per well with MICs determined visually following 18-20 h incubation at 37 °C for bacteria, 24 h incubation at 35 °C for Candida albicans, and 24 h incubation at 35 °C with resazurin addition (0.006%; Sigma-Aldrich, Cat # R7017) for a further 3 h for Cryptococcus neoformans, without shaking. Additional bacterial and yeast susceptibility assays were performed in Cation-Adjusted Mueller Hinton Broth (CAMHB; BD, Cat No. 212322) and Roswell Park Memorial Institute (RPMI) 1640 culture medium (Life Technologies Australia, Cat No. 21870092), respectively, as recommended by CLSI guidelines (M07 11th ed[36] and M27 4th ed[37]). […] Agarose MICs were determined in MHB with 1% agarose (Bioline molecular grade; Cat no: BIO-41025; high purity, high gel strength). All experiments were performed a minimum of six replicates (n ≥ 6).

P. aeruginosa = experiment: microbe, parasite or virus in culture
Procedure: as §3, §4

K. pneumoniae = experiment: microbe, parasite or virus in culture
Procedure: as §3, §4

C. albicans = experiment: microbe, parasite or virus in culture; conditions: 24 h
Procedure: as §3, §4

S. aureus = experiment: microbe, parasite or virus in culture
Procedure: as §3, §4

E. coli = experiment: microbe, parasite or virus in culture
Procedure: as §3, §4

E. coli ATCC 25922 = experiment: microbe, parasite or virus in culture; assay type: cell-based, Escherichia coli; conditions: ATCC 25922
Procedure: Assays were performed in Mueller Hinton broth (MHB; BD, Cat. No. 211443) for bacteria, and yeast extract-peptone dextrose (YPD; Sigma-Aldrich, Y1500) for yeast. The concentrations of the peptides and comparator antibiotics/antifungals in the assay wells ranged from either 128 or 64 μg mL^−1, to 0.06 or 0.03 μg mL^−1 as a 12-point dose response plated as a 2-fold dilution series across the wells of the plate in duplicate for each independent biological replicate, using a final cell density of 5 × 10^5 CFU mL^−1 and 2.5 × 10^3 CFU mL^−1 for bacteria and yeast respectively. Final assay volumes were 100 μL per well with MICs determined visually following 18-20 h incubation at 37 °C for bacteria, 24 h incubation at 35 °C for Candida albicans, and 24 h incubation at 35 °C with resazurin addition (0.006%; Sigma-Aldrich, Cat # R7017) for a further 3 h for Cryptococcus neoformans, without shaking. Additional bacterial and yeast susceptibility assays were performed in Cation-Adjusted Mueller Hinton Broth (CAMHB; BD, Cat No. 212322) and Roswell Park Memorial Institute (RPMI) 1640 culture medium (Life Technologies Australia, Cat No. 21870092), respectively, as recommended by CLSI guidelines (M07 11th ed[36] and M27 4th ed[37]). […] However, for yeast it was determined that the YPD media was more reliable and robust between repeats and therefore MICs in this media are reported. […] Agarose MICs were determined in MHB with 1% agarose (Bioline molecular grade; Cat no: BIO-41025; high purity, high gel strength). All experiments were performed a minimum of six replicates (n ≥ 6).

Compound	CC50 HEK293 [1]	CC50 HEK293, Mean [1]	CC50 at 24 h (in vitro; HEK-293 cells)	CC50 at 24 h (in vitro; HK-2 cells)	CC50 at 24 h (in vitro; HepG2 cells)	CC50 HepG2 [2]	CC50 HepG2, Mean [2]	CC50 HK2 [3]	CC50 HK2, Mean [3]	Heamolysis HC10, Mean [4]	Heamolysis HC10 [4]	BMD MIC (A. baumannii)	BMD MIC (P. aeruginosa)	BMD MIC (K. pneumoniae)	BMD MIC (C. albicans)	BMD MIC (S. aureus)	BMD MIC (E. coli)	MIC, MHB (E. coli ATCC 25922)
CC(C)[C@@H]1NC(=O)CNC(=O)[C@H](CC(N)=O)NC(=O)[C@H](CCCNC(=N)N)NC(=O)[C@H](Cc2ccc(O)cc2)NC(=O)[C@H](C(C)C)NC(=O)[C@@H]2CSSC[C@H](NC(=O)[C@H](C)NC(=O)[C@H](CCCNC(=N)N)NC1=O)C(=O)N[C@@H](Cc1ccc(O)cc1)C(=O)N[C@@H](CCCNC(=N)N)C(=O)N[C@@H](CCCNC(=N)N)C(=O)N[C@H](C(=O)N[C@@H](CC(N)=O)C(=O)O)CSSC[C@H](NC(=O)[C@H](Cc1ccccc1)NC(=O)CN)C(=O)N[C@@H](Cc1c[nH]c3ccccc13)C(=O)N[C@@H](CCCNC(=N)N)C(=O)N[C@@H](C)C(=O)N2 [NZ17228] (HELM PEPTIDE1{G.F.C.W.R.A.C.V.Y.R.N.G.V.R.A.C.Y.R.R.C.N}$PEPTIDE1,PEPTIDE1,3:R3-20:R3|PEPTIDE1,PEPTIDE1,7:R3-16:R3$$$V2.0)	>300 µg/mL	>300 µg/mL	> 300 µg/mL	> 250 µg/mL	> 300 µg/mL	>300 µg/mL	>300 µg/mL	>255 µg/mL	>250 µg/mL	>300 µg/mL	>300 µg/mL	1 µg/mL	0.5 µg/mL	0.25 µg/mL	64 µg/mL	64 µg/mL	0.125 µg/mL	0.125 µg/mL (≈ 0.049 µM)
CC(C)[C@@H]1NC(=O)CNC(=O)[C@H](CC(N)=O)NC(=O)[C@H](CCCNC(=N)N)NC(=O)[C@H](CCCNC(=N)N)NC(=O)[C@H](C)NC(=O)[C@@H]2CSSC[C@H](NC(=O)[C@H](C(C)C)NC(=O)[C@H](CCCNC(=N)N)NC1=O)C(=O)N[C@@H](Cc1ccc(O)cc1)C(=O)N[C@@H](CCCNC(=N)N)C(=O)N[C@@H](CCCNC(=N)N)C(=O)N[C@H](C(=O)N[C@@H](CC(N)=O)C(=O)O)CSSC[C@H](NC(=O)[C@H](Cc1ccccc1)NC(=O)CN)C(=O)N[C@@H](Cc1c[nH]c3ccccc13)C(=O)N[C@@H](Cc1c[nH]cn1)C(=O)N[C@@H](C(C)C)C(=O)N2 [NZ17224] (HELM PEPTIDE1{G.F.C.W.H.V.C.A.R.R.N.G.V.R.V.C.Y.R.R.C.N}$PEPTIDE1,PEPTIDE1,3:R3-20:R3|PEPTIDE1,PEPTIDE1,7:R3-16:R3$$$V2.0)	>300 µg/mL	>300 µg/mL	> 300 µg/mL	> 250 µg/mL	> 300 µg/mL	>300 µg/mL	>300 µg/mL	>255 µg/mL	>250 µg/mL	>300 µg/mL	>300 µg/mL	0.5 µg/mL	0.25 µg/mL	0.25 µg/mL	32 µg/mL	64 µg/mL	0.06 µg/mL	0.06 µg/mL (≈ 0.0235 µM)
CC(C)C[C@@H]1NC(=O)CNC(=O)[C@H](CC(N)=O)NC(=O)[C@H](CCCNC(=N)N)NC(=O)[C@H](CO)NC(=O)[C@H](C)NC(=O)[C@@H]2CSSC[C@H](NC(=O)[C@H](C(C)C)NC(=O)[C@H](CCCNC(=N)N)NC1=O)C(=O)N[C@@H](Cc1ccc(O)cc1)C(=O)N[C@@H](CCCNC(=N)N)C(=O)N[C@@H](CCCNC(=N)N)C(=O)N[C@H](C(=O)N[C@@H](CC(N)=O)C(=O)O)CSSC[C@H](NC(=O)[C@H](Cc1ccccc1)NC(=O)CN)C(=O)N[C@@H](Cc1c[nH]c3ccccc13)C(=O)N[C@@H](CCCNC(=N)N)C(=O)N[C@@H](C(C)C)C(=O)N2 [NZ17125] (HELM PEPTIDE1{G.F.C.W.R.V.C.A.S.R.N.G.L.R.V.C.Y.R.R.C.N}$PEPTIDE1,PEPTIDE1,3:R3-20:R3|PEPTIDE1,PEPTIDE1,7:R3-16:R3$$$V2.0)	–	250 µg/mL (≈ 99.4 µM)	250 µg/mL (≈ 99.4 µM)	110 µg/mL (≈ 43.7 µM)	299 µg/mL (≈ 119 µM)	–	299 µg/mL (≈ 119 µM)	–	110 µg/mL (≈ 43.7 µM)	181 µg/mL	–	1 µg/mL	0.25 µg/mL	0.25 µg/mL	64 µg/mL	64 µg/mL	0.125 µg/mL	0.125 µg/mL (≈ 0.0497 µM)
CC(C)[C@@H]1NC(=O)CNC(=O)[C@H](CC(N)=O)NC(=O)[C@H](CCCNC(=N)N)NC(=O)[C@H](CCCCN)NC(=O)[C@H](C(C)C)NC(=O)[C@@H]2CSSC[C@H](NC(=O)[C@H](CO)NC(=O)[C@H](CCCNC(=N)N)NC1=O)C(=O)N[C@@H](Cc1ccc(O)cc1)C(=O)N[C@@H](CCCNC(=N)N)C(=O)N[C@@H](CCCNC(=N)N)C(=O)N[C@H](C(=O)N[C@@H](CC(N)=O)C(=O)O)CSSC[C@H](NC(=O)[C@H](Cc1ccccc1)NC(=O)CN)C(=O)N[C@@H](Cc1c[nH]c3ccccc13)C(=O)N[C@@H](Cc1ccc(O)cc1)C(=O)N[C@@H](C(C)C)C(=O)N2 [NZ17160] (HELM PEPTIDE1{G.F.C.W.Y.V.C.V.K.R.N.G.V.R.S.C.Y.R.R.C.N}$PEPTIDE1,PEPTIDE1,3:R3-20:R3|PEPTIDE1,PEPTIDE1,7:R3-16:R3$$$V2.0)	>300 µg/mL	>300 µg/mL	> 300 µg/mL	> 250 µg/mL	> 300 µg/mL	>300 µg/mL	>300 µg/mL	>257 µg/mL	>250 µg/mL	>300 µg/mL	>300 µg/mL	1 µg/mL	0.5 µg/mL	0.25 µg/mL	64 µg/mL	>64 µg/mL	0.125 µg/mL	0.125 µg/mL (≈ 0.0487 µM)
